Assay results: patent US20120219615A1, “Therapeutic Use of a TLR Agonist and Combination Therapy” (The Trustees of the University of Pennsylvania, priority 2010, published 2012)

Tests used:
[1] = system: G-CSF, MCP-1, MIP-1β, TNFα; assay: Phase I clinical study: pharmacodynamic response, plasma immune mediators (MAP); assay type: in vivo; details: human, s.c., first dose
Description: Study Procedures: VTX-2337 was administered weekly via subcutaneous injection on Days 1, 8, and 15 of a 28-day dosing cycle for two cycles. Using a modified Fibonacci dose-escalation scheme, successive cohorts received doses ranging from 0.1 mg/m^2 to 3.9 mg/m^2 of VTX-2337. Plasma samples were collected for pharmacokinetic analysis after the first dose of the first treatment cycle and for pharmacodynamic analyses after the first dose of the first and second treatment cycles.
To evaluate the pharmacodynamic (PD) response to VTX-2337, blood was collected at 0, 4, 8, 24 hours after subcutaneous administration of the first dose of the first cycle of VTX-2337. Plasma levels of immune mediators were quantified using the human multiple analyte panel (MAP), version 1.8 (Rules Based Medicine). […] Levels of mediators in plasma collected from 9 healthy volunteers are shown for comparison to the oncology population. […]

TLR4 = TLR4 (Homo sapiens, UniProt O00206+Q9Y6Y9); assay: Activity on TLR4; assay type: cell-based; details: concentrations up to 25 μM
Description: The half-maximal effective concentration (EC50) for VTX-2337 activation of TLR8 and TLR7 was assessed in peripheral blood mononuclear cells (PBMCs) from 15 healthy donors and also in HEK293 cells transfected with TLR8 or TLR7 and an NF-κB driven reporter gene. […] Also it was observed that VTX-2337 had no activity on TLR2, TLR3, TLR4, TLR5, TLR6, or TLR9 at concentrations up to 25 μM.

TLR4, sequence (O00206 24-839, species assumed): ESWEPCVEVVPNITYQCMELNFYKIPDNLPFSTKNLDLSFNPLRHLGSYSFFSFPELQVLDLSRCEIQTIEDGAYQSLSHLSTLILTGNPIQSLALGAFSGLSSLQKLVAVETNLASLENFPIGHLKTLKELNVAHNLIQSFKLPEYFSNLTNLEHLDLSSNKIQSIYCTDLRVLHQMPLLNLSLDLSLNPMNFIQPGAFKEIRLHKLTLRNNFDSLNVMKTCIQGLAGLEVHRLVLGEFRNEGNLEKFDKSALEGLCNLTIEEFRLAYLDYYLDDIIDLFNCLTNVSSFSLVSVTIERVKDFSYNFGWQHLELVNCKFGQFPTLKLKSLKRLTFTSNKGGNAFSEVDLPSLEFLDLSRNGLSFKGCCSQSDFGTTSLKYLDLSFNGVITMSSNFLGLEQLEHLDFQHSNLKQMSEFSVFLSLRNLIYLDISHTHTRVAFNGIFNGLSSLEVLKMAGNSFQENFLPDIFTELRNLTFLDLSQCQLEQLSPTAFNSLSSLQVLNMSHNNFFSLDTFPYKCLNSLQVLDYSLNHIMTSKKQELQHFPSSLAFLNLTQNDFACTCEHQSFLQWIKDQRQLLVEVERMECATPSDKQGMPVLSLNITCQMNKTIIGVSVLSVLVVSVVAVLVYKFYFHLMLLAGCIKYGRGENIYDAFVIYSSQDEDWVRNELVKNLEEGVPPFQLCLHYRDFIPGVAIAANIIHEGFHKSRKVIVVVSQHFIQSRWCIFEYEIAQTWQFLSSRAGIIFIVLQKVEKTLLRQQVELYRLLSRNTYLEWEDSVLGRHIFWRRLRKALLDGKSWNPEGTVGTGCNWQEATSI
TLR4, sequence (Q9Y6Y9 17-160 limits assumed, species assumed): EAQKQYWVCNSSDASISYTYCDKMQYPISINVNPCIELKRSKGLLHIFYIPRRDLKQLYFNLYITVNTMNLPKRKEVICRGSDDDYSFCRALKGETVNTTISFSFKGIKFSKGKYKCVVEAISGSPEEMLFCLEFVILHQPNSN

activity on TLR4 (TLR4): no activity
Compound: CCCN(CCC)C(=O)C1=Cc2ccc(-c3ccc(C(=O)N4CCCC4)cc3)cc2N=C(N)C1 [VTX-2337, 2-amino-N,N-dipropyl-8-(4-(pyrrolidine-1-carbonyl)phenyl)-3H-benzo[b]azepine-4-carboxamide]
G-CSF plasma level ([1]; Cohort 5 (1.3 mg/m^2), 0 Hr): 5.0 ± 0.3 pg/mL | MCP-1 plasma level ([1]; Cohort 5 (1.3 mg/m^2), 0 Hr): 227 ± 79.8 pg/mL | MIP-1β plasma level ([1]; Cohort 5 (1.3 mg/m^2), 0 Hr): 182 ± 36.9 pg/mL | TNFα plasma level ([1]; Cohort 5 (1.3 mg/m^2), 0 Hr): 9.3 ± 4.1 pg/mL | G-CSF plasma level ([1]; Cohort 5 (1.3 mg/m^2), 4 Hr): 20.5 ± 24.7 pg/mL | MCP-1 plasma level ([1]; Cohort 5 (1.3 mg/m^2), 4 Hr): 911 ± 951 pg/mL | MIP-1β plasma level ([1]; Cohort 5 (1.3 mg/m^2), 4 Hr): 543 ± 477 pg/mL | TNFα plasma level ([1]; Cohort 5 (1.3 mg/m^2), 4 Hr): 14.9 ± 12.5 pg/mL | G-CSF plasma level ([1]; Cohort 5 (1.3 mg/m^2), 8 Hr): 196 ± 145 pg/mL | MCP-1 plasma level ([1]; Cohort 5 (1.3 mg/m^2), 8 Hr): 954 ± 638 pg/mL | MIP-1β plasma level ([1]; Cohort 5 (1.3 mg/m^2), 8 Hr): 688 ± 635 pg/mL | TNFα plasma level ([1]; Cohort 5 (1.3 mg/m^2), 8 Hr): 21.6 ± 13.3 pg/mL | G-CSF plasma level ([1]; Cohort 5 (1.3 mg/m^2), 24 Hr): 30.8 ± 10.4 pg/mL | MCP-1 plasma level ([1]; Cohort 5 (1.3 mg/m^2), 24 Hr): 246 ± 158 pg/mL | MIP-1β plasma level ([1]; Cohort 5 (1.3 mg/m^2), 24 Hr): 228 ± 70.1 pg/mL | TNFα plasma level ([1]; Cohort 5 (1.3 mg/m^2), 24 Hr): 15.3 ± 4.2 pg/mL | G-CSF plasma level ([1]; Cohort 6 (2.0 mg/m^2), 0 Hr): 9.9 ± 8.2 pg/mL | MCP-1 plasma level ([1]; Cohort 6 (2.0 mg/m^2), 0 Hr): 265 ± 161 pg/mL | MIP-1β plasma level ([1]; Cohort 6 (2.0 mg/m^2), 0 Hr): 136 ± 28.3 pg/mL | TNFα plasma level ([1]; Cohort 6 (2.0 mg/m^2), 0 Hr): 4.4 ± 1.6 pg/mL | G-CSF plasma level ([1]; Cohort 6 (2.0 mg/m^2), 4 Hr): 14.0 ± 4.3 pg/mL | MCP-1 plasma level ([1]; Cohort 6 (2.0 mg/m^2), 4 Hr): 247 ± 80.5 pg/mL | MIP-1β plasma level ([1]; Cohort 6 (2.0 mg/m^2), 4 Hr): 196 ± 62.5 pg/mL | TNFα plasma level ([1]; Cohort 6 (2.0 mg/m^2), 4 Hr): 8.4 ± 1.5 pg/mL | G-CSF plasma level ([1]; Cohort 6 (2.0 mg/m^2), 8 Hr): 134 ± 149 pg/mL | MCP-1 plasma level ([1]; Cohort 6 (2.0 mg/m^2), 8 Hr): 722 ± 224 pg/mL | MIP-1β plasma level ([1]; Cohort 6 (2.0 mg/m^2), 8 Hr): 289 ± 111 pg/mL | TNFα plasma level ([1]; Cohort 6 (2.0 mg/m^2), 8 Hr): 10.0 ± 2.3 pg/mL | G-CSF plasma level ([1]; Cohort 6 (2.0 mg/m^2), 24 Hr): 42.2 ± 31.6 pg/mL | MCP-1 plasma level ([1]; Cohort 6 (2.0 mg/m^2), 24 Hr): 320 ± 244 pg/mL | MIP-1β plasma level ([1]; Cohort 6 (2.0 mg/m^2), 24 Hr): 155 ± 26 pg/mL | TNFα plasma level ([1]; Cohort 6 (2.0 mg/m^2), 24 Hr): 10.0 ± 0.2 pg/mL | G-CSF plasma level ([1]; Cohort 7 (2.8 mg/m^2), 0 Hr): 7.4 ± 3.2 pg/mL | MCP-1 plasma level ([1]; Cohort 7 (2.8 mg/m^2), 0 Hr): 250 ± 110 pg/mL | MIP-1β plasma level ([1]; Cohort 7 (2.8 mg/m^2), 0 Hr): 136 ± 22 pg/mL | TNFα plasma level ([1]; Cohort 7 (2.8 mg/m^2), 0 Hr): 6.1 ± 1.8 pg/mL | G-CSF plasma level ([1]; Cohort 7 (2.8 mg/m^2), 4 Hr): 12.4 ± 2.4 pg/mL | MCP-1 plasma level ([1]; Cohort 7 (2.8 mg/m^2), 4 Hr): 719 ± 433 pg/mL | MIP-1β plasma level ([1]; Cohort 7 (2.8 mg/m^2), 4 Hr): 517 ± 305 pg/mL | TNFα plasma level ([1]; Cohort 7 (2.8 mg/m^2), 4 Hr): 10.9 ± 1.4 pg/mL | G-CSF plasma level ([1]; Cohort 7 (2.8 mg/m^2), 8 Hr): 553 ± 246 pg/mL | MCP-1 plasma level ([1]; Cohort 7 (2.8 mg/m^2), 8 Hr): 2043 ± 760 pg/mL | MIP-1β plasma level ([1]; Cohort 7 (2.8 mg/m^2), 8 Hr): 646 ± 216 pg/mL | TNFα plasma level ([1]; Cohort 7 (2.8 mg/m^2), 8 Hr): 12.8 ± 2.5 pg/mL | G-CSF plasma level ([1]; Cohort 7 (2.8 mg/m^2), 24 Hr): 59.0 ± 31.7 pg/mL | MCP-1 plasma level ([1]; Cohort 7 (2.8 mg/m^2), 24 Hr): 273 ± 109 pg/mL | MIP-1β plasma level ([1]; Cohort 7 (2.8 mg/m^2), 24 Hr): 152 ± 82 pg/mL | TNFα plasma level ([1]; Cohort 7 (2.8 mg/m^2), 24 Hr): 8.8 ± 4.1 pg/mL | G-CSF plasma level ([1]; Cohort 8 (3.9 mg/m^2), 0 Hr): 29.1 ± 55.8 pg/mL | MCP-1 plasma level ([1]; Cohort 8 (3.9 mg/m^2), 0 Hr): 249 ± 56 pg/mL | MIP-1β plasma level ([1]; Cohort 8 (3.9 mg/m^2), 0 Hr): 236 ± 111 pg/mL | TNFα plasma level ([1]; Cohort 8 (3.9 mg/m^2), 0 Hr): 14.9 ± 9.1 pg/mL | G-CSF plasma level ([1]; Cohort 8 (3.9 mg/m^2), 4 Hr): 83.3 ± 104.7 pg/mL | MCP-1 plasma level ([1]; Cohort 8 (3.9 mg/m^2), 4 Hr): 5227 ± 8362 pg/mL | MIP-1β plasma level ([1]; Cohort 8 (3.9 mg/m^2), 4 Hr): 7793 ± 10824 pg/mL | TNFα plasma level ([1]; Cohort 8 (3.9 mg/m^2), 4 Hr): 56.9 ± 48.3 pg/mL | G-CSF plasma level ([1]; Cohort 8 (3.9 mg/m^2), 8 Hr): 2151 ± 3586 pg/mL | MCP-1 plasma level ([1]; Cohort 8 (3.9 mg/m^2), 8 Hr): 8128 ± 10588 pg/mL | MIP-1β plasma level ([1]; Cohort 8 (3.9 mg/m^2), 8 Hr): 2259 ± 2456 pg/mL | TNFα plasma level ([1]; Cohort 8 (3.9 mg/m^2), 8 Hr): 42.7 ± 27.4 pg/mL | G-CSF plasma level ([1]; Cohort 8 (3.9 mg/m^2), 24 Hr): 141.4 ± 228.8 pg/mL | MCP-1 plasma level ([1]; Cohort 8 (3.9 mg/m^2), 24 Hr): 532 ± 571 pg/mL | MIP-1β plasma level ([1]; Cohort 8 (3.9 mg/m^2), 24 Hr): 276 ± 108 pg/mL | TNFα plasma level ([1]; Cohort 8 (3.9 mg/m^2), 24 Hr): 24.2 ± 9.4 pg/mL
